Where “and” joins values, the source holds several entries; their conditions need not be identical. Identical values can stand only once.
Settings: Gas, Buoyancy - hydrostatic balance with magnetic suspension - two sinkers

FC(F)C(F)(F)F [pentafluoroethane]
Settings | mass density
283.15 K, 207.2 kPa | 10.978 kg/m3 and 10.98 kg/m3
283.15 K, 442.7 kPa | 24.675 kg/m3 and 24.667 kg/m3
283.15 K, 617.4 kPa | 35.904 kg/m3 and 35.92 kg/m3
283.15 K, 710.7 kPa | 42.388 kg/m3
283.15 K, 710.8 kPa | 42.398 kg/m3
283.15 K, 758.3 kPa | 45.855 kg/m3 and 45.853 kg/m3
283.15 K, 811.7 kPa | 49.881 kg/m3 and 49.877 kg/m3
283.15 K, 828 kPa | 51.141 kg/m3 and 51.137 kg/m3
283.15 K, 857 kPa | 53.429 kg/m3 and 53.417 kg/m3
283.15 K, 872.2 kPa | 54.64 kg/m3
283.15 K, 872.3 kPa | 54.652 kg/m3
283.15 K, 880 kPa | 55.27 kg/m3 and 55.283 kg/m3
283.15 K, 889.1 kPa | 56.021 kg/m3
283.15 K, 889.2 kPa | 56.023 kg/m3
283.15 K, 901.7 kPa | 57.048 kg/m3 and 57.055 kg/m3
293.15 K, 205.9 kPa | 10.502 kg/m3
293.15 K, 206 kPa | 10.492 kg/m3
293.15 K, 413.1 kPa | 21.853 kg/m3
293.15 K, 413.2 kPa | 21.867 kg/m3
293.15 K, 605 kPa | 33.264 kg/m3 and 33.278 kg/m3
293.15 K, 799.7 kPa | 45.976 kg/m3
293.15 K, 799.8 kPa | 45.993 kg/m3
293.15 K, 901.5 kPa | 53.187 kg/m3 and 53.196 kg/m3
293.15 K, 1000.4 kPa | 60.669 kg/m3
293.15 K, 1000.5 kPa | 60.666 kg/m3
293.15 K, 1051.5 kPa | 64.739 kg/m3 and 64.718 kg/m3
293.15 K, 1101.2 kPa | 68.839 kg/m3
293.15 K, 1101.3 kPa | 68.86 kg/m3
293.15 K, 1133.2 kPa | 71.588 kg/m3 and 71.578 kg/m3
293.15 K, 1149.6 kPa | 73.019 kg/m3
293.15 K, 1149.7 kPa | 73.016 kg/m3
293.15 K, 1170.5 kPa | 74.869 kg/m3
293.15 K, 1170.6 kPa | 74.882 kg/m3
293.15 K, 1181.8 kPa | 75.887 kg/m3
293.15 K, 1182 kPa | 75.908 kg/m3
293.15 K, 1192.1 kPa | 76.823 kg/m3
293.15 K, 1192.2 kPa | 76.841 kg/m3
293.15 K, 1200.9 kPa | 77.624 kg/m3
293.15 K, 1201 kPa | 77.644 kg/m3
303.15 K, 225.1 kPa | 11.079 kg/m3 and 11.067 kg/m3
303.15 K, 411.9 kPa | 20.874 kg/m3 and 20.883 kg/m3
303.15 K, 602.3 kPa | 31.549 kg/m3 and 31.562 kg/m3
303.15 K, 800.1 kPa | 43.526 kg/m3 and 43.535 kg/m3
303.15 K, 999.2 kPa | 56.733 kg/m3
303.15 K, 999.3 kPa | 56.74 kg/m3
303.15 K, 1202.4 kPa | 71.762 kg/m3 and 71.771 kg/m3
303.15 K, 1299.2 kPa | 79.657 kg/m3
303.15 K, 1299.4 kPa | 79.674 kg/m3
303.15 K, 1406.6 kPa | 89.099 kg/m3
303.15 K, 1406.7 kPa | 89.124 kg/m3
303.15 K, 1450.2 kPa | 93.212 kg/m3 and 93.199 kg/m3
303.15 K, 1481.2 kPa | 96.221 kg/m3
303.15 K, 1481.3 kPa | 96.231 kg/m3
303.15 K, 1505.2 kPa | 98.609 kg/m3 and 98.623 kg/m3
303.15 K, 1520.5 kPa | 100.175 kg/m3
303.15 K, 1520.6 kPa | 100.195 kg/m3
303.15 K, 1537.3 kPa | 101.933 kg/m3
303.15 K, 1537.4 kPa | 101.917 kg/m3
303.15 K, 1565.1 kPa | 104.879 kg/m3
303.15 K, 1565.8 kPa | 104.956 kg/m3
313.15 K, 203.4 kPa | 9.623 kg/m3 and 9.618 kg/m3
313.15 K, 404.5 kPa | 19.688 kg/m3
313.15 K, 404.6 kPa | 19.685 kg/m3
313.15 K, 602.7 kPa | 30.217 kg/m3 and 30.212 kg/m3
313.15 K, 801.5 kPa | 41.504 kg/m3 and 41.496 kg/m3
313.15 K, 1002 kPa | 53.773 kg/m3 and 53.76 kg/m3
313.15 K, 1199.3 kPa | 66.926 kg/m3 and 66.915 kg/m3
313.15 K, 1398.2 kPa | 81.578 kg/m3
313.15 K, 1398.3 kPa | 81.585 kg/m3
313.15 K, 1604.4 kPa | 98.7 kg/m3
313.15 K, 1604.5 kPa | 98.71 kg/m3
313.15 K, 1705.9 kPa | 108.153 kg/m3 and 108.152 kg/m3
313.15 K, 1814.1 kPa | 119.179 kg/m3 and 119.18 kg/m3
313.15 K, 1900.7 kPa | 128.938 kg/m3 and 128.932 kg/m3
313.15 K, 1951.9 kPa | 135.196 kg/m3 and 135.193 kg/m3
313.15 K, 1976.7 kPa | 138.379 kg/m3 and 138.387 kg/m3
313.15 K, 1990.3 kPa | 140.201 kg/m3 and 140.173 kg/m3
313.15 K, 2001.8 kPa | 141.759 kg/m3
313.15 K, 2002 kPa | 141.763 kg/m3
323.15 K, 196.2 kPa | 8.951 kg/m3 and 8.953 kg/m3
323.15 K, 495.8 kPa | 23.505 kg/m3 and 23.498 kg/m3
323.15 K, 798.1 kPa | 39.455 kg/m3 and 39.458 kg/m3
323.15 K, 999.5 kPa | 50.95 kg/m3
323.15 K, 999.6 kPa | 50.954 kg/m3
323.15 K, 1199 kPa | 63.156 kg/m3 and 63.162 kg/m3
323.15 K, 1399 kPa | 76.417 kg/m3 and 76.411 kg/m3
323.15 K, 1599.7 kPa | 90.933 kg/m3 and 90.927 kg/m3
323.15 K, 1798.9 kPa | 106.993 kg/m3
323.15 K, 1799 kPa | 106.996 kg/m3
323.15 K, 2000.3 kPa | 125.421 kg/m3 and 125.435 kg/m3
323.15 K, 2100.4 kPa | 135.708 kg/m3 and 135.695 kg/m3
323.15 K, 2201.4 kPa | 147.071 kg/m3
323.15 K, 2201.5 kPa | 147.082 kg/m3
323.15 K, 2301.3 kPa | 159.592 kg/m3 and 159.61 kg/m3
323.15 K, 2350 kPa | 166.311 kg/m3
323.15 K, 2350.1 kPa | 166.298 kg/m3
323.15 K, 2400.2 kPa | 173.712 kg/m3 and 173.74 kg/m3
323.15 K, 2430 kPa | 178.427 kg/m3
323.15 K, 2430.1 kPa | 178.468 kg/m3
323.15 K, 2451.8 kPa | 182.037 kg/m3 and 182.009 kg/m3
323.15 K, 2469.3 kPa | 185.047 kg/m3 and 185.021 kg/m3

FCF [difluoromethane]
Settings | mass density
313.15 K, 201.8 kPa | 4.12 kg/m3
313.15 K, 201.9 kPa | 4.121 kg/m3
313.15 K, 490.8 kPa | 10.336 kg/m3 and 10.342 kg/m3
313.15 K, 791 kPa | 17.275 kg/m3 and 17.277 kg/m3
313.15 K, 996.6 kPa | 22.349 kg/m3 and 22.355 kg/m3
313.15 K, 1203.3 kPa | 27.759 kg/m3 and 27.77 kg/m3
313.15 K, 1396.5 kPa | 33.148 kg/m3 and 33.159 kg/m3
313.15 K, 1602.9 kPa | 39.322 kg/m3 and 39.331 kg/m3
313.15 K, 1801.8 kPa | 45.76 kg/m3
313.15 K, 1801.9 kPa | 45.748 kg/m3
313.15 K, 1998.1 kPa | 52.687 kg/m3 and 52.676 kg/m3
313.15 K, 2103.6 kPa | 56.702 kg/m3 and 56.692 kg/m3
313.15 K, 2201.5 kPa | 60.637 kg/m3 and 60.629 kg/m3
313.15 K, 2251 kPa | 62.72 kg/m3 and 62.711 kg/m3
313.15 K, 2298.1 kPa | 64.762 kg/m3 and 64.748 kg/m3
313.15 K, 2355.7 kPa | 67.348 kg/m3
313.15 K, 2355.8 kPa | 67.343 kg/m3
313.15 K, 2402.7 kPa | 69.541 kg/m3
313.15 K, 2403 kPa | 69.545 kg/m3
313.15 K, 2435 kPa | 71.084 kg/m3
313.15 K, 2435.1 kPa | 71.095 kg/m3
313.15 K, 2450.5 kPa | 71.838 kg/m3
313.15 K, 2450.6 kPa | 71.855 kg/m3
313.15 K, 2472 kPa | 72.903 kg/m3 and 72.918 kg/m3
323.15 K, 207.9 kPa | 4.101 kg/m3 and 4.103 kg/m3
323.15 K, 499.2 kPa | 10.125 kg/m3 and 10.143 kg/m3 and 10.132 kg/m3
323.15 K, 801.1 kPa | 16.793 kg/m3
323.15 K, 801.2 kPa | 16.794 kg/m3
323.15 K, 998.3 kPa | 21.387 kg/m3 and 21.393 kg/m3
323.15 K, 1095.2 kPa | 23.732 kg/m3
323.15 K, 1200.3 kPa | 26.337 kg/m3
323.15 K, 1200.4 kPa | 26.341 kg/m3
323.15 K, 1397.4 kPa | 31.424 kg/m3 and 31.416 kg/m3
323.15 K, 1590.6 kPa | 36.664 kg/m3 and 36.67 kg/m3
323.15 K, 1797.2 kPa | 42.644 kg/m3 and 42.658 kg/m3
323.15 K, 2004.9 kPa | 49.091 kg/m3 and 49.105 kg/m3
323.15 K, 2200.6 kPa | 55.637 kg/m3 and 55.653 kg/m3
323.15 K, 2402.3 kPa | 62.99 kg/m3 and 62.978 kg/m3
323.15 K, 2596.1 kPa | 70.738 kg/m3 and 70.733 kg/m3
323.15 K, 2699 kPa | 75.19 kg/m3
323.15 K, 2699.1 kPa | 75.207 kg/m3
323.15 K, 2799 kPa | 79.805 kg/m3 and 79.816 kg/m3
323.15 K, 2802.9 kPa | 80.005 kg/m3 and 80.017 kg/m3
323.15 K, 2900.6 kPa | 84.82 kg/m3 and 84.839 kg/m3
323.15 K, 2901.2 kPa | 84.882 kg/m3 and 84.872 kg/m3
323.15 K, 2947 kPa | 87.258 kg/m3 and 87.244 kg/m3
323.15 K, 2960.3 kPa | 87.971 kg/m3 and 87.99 kg/m3
323.15 K, 3002.2 kPa | 90.24 kg/m3
323.15 K, 3002.3 kPa | 90.261 kg/m3
323.15 K, 3010.2 kPa | 90.716 kg/m3 and 90.73 kg/m3
323.15 K, 3041.1 kPa | 92.478 kg/m3
323.15 K, 3041.2 kPa | 92.495 kg/m3
323.15 K, 3074.6 kPa | 94.445 kg/m3 and 94.453 kg/m3
323.15 K, 3099.5 kPa | 95.942 kg/m3 and 95.952 kg/m3
323.15 K, 3125.5 kPa | 97.558 kg/m3
323.15 K, 3125.6 kPa | 97.549 kg/m3
323.15 K, 3134.2 kPa | 98.084 kg/m3
